Results taken from ChEMBL document CHEMBL4765275, “Discovery of novel tertiary amide derivatives as NEDDylation pathway activators to inhibit the tumor progression in vitro and in vivo” (Eur J Med Chem, 2020).
Activity calls are given as the source filed them. The rule behind the calls is not given here.

Assays:
[1] = system: MGC-803; experiment: Cell cycle arrest in human MGC-803 cells assessed as accumulation at G1 phase at 150 nmol/L measured after 48 hrs by propidium iodide staining based flow cytometry (reference value: 40.61%); format: functional
[2] = system: MGC-803; experiment: Induction of apoptosis in human MGC-803 cells assessed as viable cells at 150 nmol/L measured after 48 hrs by Annexin V-FITC/propidium iodide staining based flow cytometry (reference value: 91.7%); format: functional; details: read-out: Activity
[3] = system: MGC-803; experiment: Induction of morphological changes in human MGC-803 cells assessed as nuclear condensation at 50 to 150 nmol/L measured after 48 hrs by DAPI staining based assay; format: functional, cell-based; details: dose 50-150 nmol/L
[4] = target: T1, NEDD8-activating enzyme E1 regulatory subunit (Homo sapiens) (UniProt Q13564); experiment: Activation of NAE1-mediated neddylation in human MGC-803 cells assessed as increase in Nedd8 neddylation at 50 to 150 nmol/L measured after 24 hrs by Western blot analysis; format: cell-based; details: filed as activator, dose 50-150 nmol/L
T1 sequence (whole entry): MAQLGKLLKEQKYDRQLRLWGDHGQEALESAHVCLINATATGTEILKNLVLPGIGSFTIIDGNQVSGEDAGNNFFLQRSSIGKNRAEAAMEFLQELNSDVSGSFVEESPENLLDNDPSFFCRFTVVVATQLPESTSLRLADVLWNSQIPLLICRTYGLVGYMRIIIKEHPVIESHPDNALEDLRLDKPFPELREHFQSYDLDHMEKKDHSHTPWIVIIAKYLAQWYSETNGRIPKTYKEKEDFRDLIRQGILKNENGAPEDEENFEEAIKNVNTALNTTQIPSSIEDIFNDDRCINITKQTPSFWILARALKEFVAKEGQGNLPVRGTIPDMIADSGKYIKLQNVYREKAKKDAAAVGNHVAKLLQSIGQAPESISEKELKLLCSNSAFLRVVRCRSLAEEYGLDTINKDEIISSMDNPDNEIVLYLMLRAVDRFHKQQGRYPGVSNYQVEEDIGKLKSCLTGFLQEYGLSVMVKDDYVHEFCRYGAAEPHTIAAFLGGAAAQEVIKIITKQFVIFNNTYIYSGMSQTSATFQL

[5] = system: MGC-803; experiment: Induction of apoptosis in human MGC-803 cells assessed as late apoptotic cells at 50 nmol/L measured after 48 hrs by Annexin V-FITC/propidium iodide staining based flow cytometry (reference value: 5.6%); format: functional

Activity [4]: Active
Compound: COc1ccc(CN(C(=O)Cc2cccs2)c2cc(OC)c(OC)c(OC)c2)cc1
Activity [1]: 13.31% | viability at 0.15 µM [2]: 8.6% | Activity [3]: Active | Activity [5]: 6.5%
